According to US9738669B2, “Pentaaza macrocyclic ring complexes possessing oral bioavailability” (Galera Labs, LLC, priority 2015, dated 2017):
One block for each compound: values may come before it.

Experiments:
[1] = system: lethal total body irradiation of adult mice; settings: ip; cited from earlier work
[2] = Intraduodenal (id) bioavailability screen in minipigs, plasma level of parent Mn complex by HPLC/MS/MS; type: in vivo, Gottingen minipig; settings: id 10 mg/kg, vs 1 mg/kg iv parent chloro complex, AUC0→24 h
Description: Compounds were screened for oral bioavailability by injecting the formulated prodrugs directly into the duodenum (intraduodenal or id administration) of the minipig test subjects, thus bypassing the acidic environment of the stomach and thereby eliminating potentially misleading oral bioavailability results that could arise from alteration of the test article drug in the acid environment of the stomach.
The studies were conducted at Xenometrics LLC (Stillwell, Kans.) and the id bioavailability was determined using various axial ligand derivative complexes of GC4419, GC4444, GC4403 and GC4401.
Male Gottingen minipigs (4-5 mo old, 9-12 kg weight) were purchased from Marshall BioResources and housed at Xenometrics. […] The distal end was exteriorized with a reusable accessible hub (see surgical details below). During a recovery period of at least 2 weeks the minipigs were handled daily to acclimate them to the test procedures, i.e., id dosing and blood collections. For each experiment, each minipig received a test article drug dissolved or suspended in an excipient vehicle. […] All dosing experiments were conducted in fasted animals. Food was withdrawn from the minipigs 16 hours before dosing. The minipigs had ad libitum access to water. Dosed minipigs were allowed access to food 6 hour after dosing. The test article was administered at a dose of 10 mg/kg parent drug in 0.1 mL/kg vehicle (e.g., 1.5 mL in 15 kg minipig) as a bolus injection (˜1 minute) via the id cannula. The actual amount of total test article drug administered varied with the formula weight of the prodrug. An equal volume of excipient vehicle was used to flush the cannula after the test article was administered. Approximately 6 hours later, corn oil was used to flush the cannula. After approximately 24 hours post-dose, the catheter was flushed with sterile saline solution and capped. At the following time-points 0.25, 0.5, 1, 2, 4, 8, 24 and 48 hour post-injection, 2 mL blood samples were collected by cranial vena cava puncture (4 mL Sodium heparin Vacutainer, 20 g 1.5″ needle) after the skin surface was wiped with ethanol. The minipig was placed in a sling in a recumbent position without anesthesia for the collection of blood samples. The minipigs were never used more than once per 7 days for experimentation. The blood samples were kept on ice until processed for plasma. Blood samples were centrifuged at 1200×g for ten minutes at 4° C. and plasma samples were transferred to 96 well plate tubes, capped and stored at −20° C. until shipment on dry ice to the analytical laboratory used for measuring the concentration of drug in the plasma. The concentration of the parent manganese pentaaza macrocylic ring complex (independent of the composition of the axial ligands) was measured in plasma using a validated HPLC/MS/MS method that is linear between 50 ng/mL and 20,000 ng/mL.
The oils used for preparing the dosing solutions were used as supplied from commercial sources. The Capmul MCM (NF) is a mixture of mono/diglycerides of caprylic/capric acids and was supplied by ABITEC Corporation, Janesville, Wis. The Miglyol 812 N is a mixture of caprylic/capric acid triglycerides and was supplied by Cremer Oleo Division, Eatontown, N.J. Labrafil M 2125 CS (NF) is chemically defined to be linoleoyl polyoxyl-6 glycerides NF and was supplied by Gattefosse, SAINT-PRIEST Cedex, France. Peceol is chemically defined to be the monoglyceride, glyceryl monooleate NF, and was supplied by Gattefosse, SAINT-PRIEST Cedex, France. Maisine 35-1 is chemically defined to be the monoglyceride glyceryl monolinoleate (NF) and was supplied by Gattefosse, SAINT-PRIEST Cedex, France. Labrasol (NF) is chemically defined to be caprylocaproyl polyoxyl-8 glycerides NF and was supplied by Gattefosse, SAINT-PRIEST Cedex, France. Labrafil M 1944 CS is chemically defined to be oleoyl polyoxyl-6 glycerides (NF), and is available from Gattefosse, SAINT-PRIEST Cedex, France. […]

[3] = system: rat model of collagen-induced arthritis; settings: ip; cited from earlier work
[4] = system: hamster model of acute, radiation-induced oral mucositis; settings: ip; cited from earlier work
[5] = system: rats subjected to an experimental model of colitis; settings: ip injection; cited from earlier work
[6] = system: rat model of inflammation; settings: ip; cited from earlier work
Solubility in water = type: physicochemical
[7] = system: oral mucositis in head-and-neck cancer patients; settings: intravenous (iv) infusion, head-and-neck cancer patients undergoing chemoradiation therapy; cited from earlier work
[8] = system: VEGFr inhibitor-induced pulmonary disease; settings: ip, rat model; cited from earlier work
[9] = base oil Capmul MCM, 10% by weight
[10] = base oil Miglyol 812N, 10% by weight

Compound: [Cl-].[Cl-].[Mn+2].c1cc2nc(c1)CN[C@@H]1CCCC[C@H]1NCCN[C@@H]1CCCC[C@H]1NC2 [GC4403]
radiation damage [1]: attenuate the radiation damage
Mini-Pig BioA [2, 9]: 9%
joint disease [3]: prevent joint disease
radiation damage [4]: attenuate the radiation damage
injury to the colon [5]: significantly reduce the injury to the colon
inflammation [6]: inhibit inflammation

Compound: Manganese(II)bis-racemic-phenylglycinato[2S,21S-Dimethyl(4aR,13aR,17aR,21aR)-1,2,3,4,4a,5,6,12,13,13a,14,15,16,17,17a,18,19,20,21,21a-Eicosahydro-11,7-nitrilo-7H-dibenzo[b,h][1,4,7,10]tetraazacycloheptadecine-κN5,κN13,κN18,κN21,κN22]- [GC4715]
Mini-Pig BioA [2, 9]: 36%

Compound: Manganese(II)bis-racemic-phenylglycinato[6R-Methyl(4aR,13aR,17aR,21aR)-1,2,3,4,4a,5,6,12,13,13a,14,15,16,17,17a,18,19,20,21,21a-Eicosahydro-11,7-nitrilo-7H-dibenzo[b,h][1,4,7,10]tetraazacycloheptadecine-κN5,κN13,κN18,κN21,κN22]- [GC4716]
Mini-Pig BioA [2, 9]: 34%

Now from value to compound, other results behind:

solubility in water (Solubility in water): relatively readily soluble in water
Mini-Pig BioA [2, 9]: 9%
Mini-Pig BioA ([2]; base oil Labrafil M2125 CS, 10% by weight): 7%
Mini-Pig BioA ([2]; base oil Maisine 35-1, 10% by weight): 8%
Mini-Pig BioA [2, 10]: 8%
Mini-Pig BioA ([2]; base oil Peceol, 10% by weight): 9%
Compound: [Cl][Mn][Cl].c1cc2nc(c1)CN[C@H]1CCCC[C@@H]1NCCN[C@H]1CCCC[C@@H]1NC2 [GC4419, reference compound]
oral mucositis [7]: reduce oral mucositis
VEGFr inhibitor-induced pulmonary disease [8]: attenuate VEGFr inhibitor-induced pulmonary disease

Mini-Pig BioA [2, 9]: 26%
Compound: Manganese(II)bis-racemic-phenylglycinato[(4aR,13aR,17aR,21aR)-1,2,3,4,4a,5,6,12,13,13a,14,15,16,17,17a,18,19,20,21,21a-Eicosahydro-11,7-nitrilo-7H-dibenzo[b,h][1,4,7,10]tetraazacycloheptadecine-κN5,κN13,κN18,κN21,κN22]- [GC4717]

Mini-Pig BioA [2, 9]: 33%
Mini-Pig BioA [2, 10]: 32%
Compound: Manganese(II)bis-racemic-phenylglycinato[(4aS,13aS,17aS,21aS)-1,2,3,4,4a,5,6,12,13,13a,14,15,16,17,17a,18,19,20,21,21a-Eicosahydro-11,7-nitrilo-7H-dibenzo[b,h][1,4,7,10]tetraazacycloheptadecine-κN5,κN13,κN18,κN21,κN22]- [GC4720]
